Reference: the NIST ThermoML archive (doi:10.1021/acs.jced.9b00041)
± gives the expanded uncertainty stated by the source.

Key:
[1] = wn = mass fraction of the nth substance listed; details: 298.15 K; 100 kPa; Liquid; Vibrating tube method; w2 = 0.089
[2] = 298.15 K; 101.33 kPa; Liquid; Vibrating tube method

SMILES	mass density [1] [kg/m3]	mass density [2] [kg/m3]
CC(O)C(=O)O (centres undefined) [2-hydroxypropanoic acid] + O	1202.57 ± 10	–
CCCC[n+]1ccn(C)c1.O=S(=O)([N-]S(=O)(=O)C(F)(F)F)C(F)(F)F	–	1436.46 ± 10
CC(O)C(=O)O (centres undefined) [2-hydroxypropanoic acid]	–	1202.57 ± 35
CC(=O)CCC(=O)O [4-oxopentanoic acid]	–	1135.71 ± 10
